# From the NIST ThermoML archive (doi:10.1021/je700670k)
# ± gives the expanded uncertainty stated by the source.
# Conditions: Liquid, Vibrating tube method
smiles,measurement,setting,value
CCC[n+]1cccc(C)c1.O=S(=O)([N-]S(=O)(=O)C(F)(F)F)C(F)(F)F,mass density,"293.15 K, 100 kPa",1454.9 ± 12 kg/m3
same,mass density,"293.15 K, 1000 kPa",1455.6 ± 12 kg/m3
same,mass density,"293.15 K, 2000 kPa",1456.4 ± 12 kg/m3
same,mass density,"293.15 K, 3000 kPa",1457.1 ± 12 kg/m3
same,mass density,"293.15 K, 4000 kPa",1457.9 ± 12 kg/m3
same,mass density,"293.15 K, 5000 kPa",1458.7 ± 12 kg/m3
same,mass density,"293.15 K, 7500 kPa",1460.5 ± 12 kg/m3
same,mass density,"293.15 K, 10000 kPa",1462.4 ± 12 kg/m3
same,mass density,"293.15 K, 15000 kPa",1466.1 ± 12 kg/m3
same,mass density,"293.15 K, 20000 kPa",1469.6 ± 12 kg/m3
same,mass density,"293.15 K, 25000 kPa",1473.1 ± 12 kg/m3
same,mass density,"293.15 K, 30000 kPa",1476.5 ± 12 kg/m3
same,mass density,"293.15 K, 35000 kPa",1479.8 ± 12 kg/m3
same,mass density,"303.15 K, 100 kPa",1444.4 ± 12 kg/m3
same,mass density,"303.15 K, 1000 kPa",1445.3 ± 12 kg/m3
same,mass density,"303.15 K, 2000 kPa",1446.1 ± 12 kg/m3
same,mass density,"303.15 K, 3000 kPa",1446.8 ± 12 kg/m3
same,mass density,"303.15 K, 4000 kPa",1447.6 ± 12 kg/m3
same,mass density,"303.15 K, 5000 kPa",1448.4 ± 12 kg/m3
same,mass density,"303.15 K, 7500 kPa",1450.3 ± 12 kg/m3
same,mass density,"303.15 K, 10000 kPa",1452.2 ± 12 kg/m3
same,mass density,"303.15 K, 15000 kPa",1455.9 ± 12 kg/m3
same,mass density,"303.15 K, 20000 kPa",1459.6 ± 12 kg/m3
same,mass density,"303.15 K, 25000 kPa",1463.1 ± 12 kg/m3
same,mass density,"303.15 K, 30000 kPa",1466.6 ± 12 kg/m3
same,mass density,"303.15 K, 35000 kPa",1470 ± 12 kg/m3
same,mass density,"313.15 K, 100 kPa",1433.9 ± 12 kg/m3
same,mass density,"313.15 K, 1000 kPa",1434.8 ± 12 kg/m3
same,mass density,"313.15 K, 2000 kPa",1435.6 ± 12 kg/m3
same,mass density,"313.15 K, 3000 kPa",1436.4 ± 12 kg/m3
same,mass density,"313.15 K, 4000 kPa",1437.3 ± 12 kg/m3
same,mass density,"313.15 K, 5000 kPa",1438 ± 12 kg/m3
same,mass density,"313.15 K, 7500 kPa",1440 ± 12 kg/m3
same,mass density,"313.15 K, 10000 kPa",1441.9 ± 12 kg/m3
same,mass density,"313.15 K, 15000 kPa",1445.7 ± 12 kg/m3
same,mass density,"313.15 K, 20000 kPa",1449.5 ± 12 kg/m3
same,mass density,"313.15 K, 25000 kPa",1453.1 ± 12 kg/m3
same,mass density,"313.15 K, 30000 kPa",1456.7 ± 12 kg/m3
same,mass density,"313.15 K, 35000 kPa",1460.3 ± 12 kg/m3
same,mass density,"323.15 K, 100 kPa",1423.7 ± 12 kg/m3
same,mass density,"323.15 K, 1000 kPa",1424.5 ± 12 kg/m3
same,mass density,"323.15 K, 2000 kPa",1425.3 ± 12 kg/m3
same,mass density,"323.15 K, 3000 kPa",1426.1 ± 12 kg/m3
same,mass density,"323.15 K, 4000 kPa",1427 ± 12 kg/m3
same,mass density,"323.15 K, 5000 kPa",1427.8 ± 12 kg/m3
same,mass density,"323.15 K, 7500 kPa",1429.9 ± 12 kg/m3
same,mass density,"323.15 K, 10000 kPa",1431.9 ± 12 kg/m3
same,mass density,"323.15 K, 15000 kPa",1435.7 ± 12 kg/m3
same,mass density,"323.15 K, 20000 kPa",1439.5 ± 12 kg/m3
same,mass density,"323.15 K, 25000 kPa",1443.3 ± 12 kg/m3
same,mass density,"323.15 K, 30000 kPa",1446.9 ± 12 kg/m3
same,mass density,"323.15 K, 35000 kPa",1450.5 ± 12 kg/m3
same,mass density,"333.15 K, 100 kPa",1413.6 ± 12 kg/m3
same,mass density,"333.15 K, 1000 kPa",1414.4 ± 12 kg/m3
same,mass density,"333.15 K, 2000 kPa",1415.3 ± 12 kg/m3
same,mass density,"333.15 K, 3000 kPa",1416.1 ± 12 kg/m3
same,mass density,"333.15 K, 4000 kPa",1417 ± 12 kg/m3
same,mass density,"333.15 K, 5000 kPa",1417.8 ± 12 kg/m3
same,mass density,"333.15 K, 7500 kPa",1419.8 ± 12 kg/m3
same,mass density,"333.15 K, 10000 kPa",1421.9 ± 12 kg/m3
same,mass density,"333.15 K, 15000 kPa",1425.9 ± 12 kg/m3
same,mass density,"333.15 K, 20000 kPa",1429.9 ± 12 kg/m3
same,mass density,"333.15 K, 25000 kPa",1433.7 ± 12 kg/m3
same,mass density,"333.15 K, 30000 kPa",1437.4 ± 12 kg/m3
same,mass density,"333.15 K, 35000 kPa",1441.1 ± 12 kg/m3
same,mass density,"353.15 K, 100 kPa",1393.7 ± 12 kg/m3
same,mass density,"353.15 K, 1000 kPa",1394.6 ± 12 kg/m3
same,mass density,"353.15 K, 2000 kPa",1395.5 ± 12 kg/m3
same,mass density,"353.15 K, 3000 kPa",1396.4 ± 12 kg/m3
same,mass density,"353.15 K, 4000 kPa",1397.4 ± 12 kg/m3
same,mass density,"353.15 K, 5000 kPa",1398 ± 12 kg/m3
same,mass density,"353.15 K, 7500 kPa",1400.2 ± 12 kg/m3
same,mass density,"353.15 K, 10000 kPa",1402.5 ± 12 kg/m3
same,mass density,"353.15 K, 15000 kPa",1406.8 ± 12 kg/m3
same,mass density,"353.15 K, 20000 kPa",1411 ± 12 kg/m3
same,mass density,"353.15 K, 25000 kPa",1415.1 ± 12 kg/m3
same,mass density,"353.15 K, 30000 kPa",1419 ± 12 kg/m3
same,mass density,"353.15 K, 35000 kPa",1422.9 ± 12 kg/m3
same,mass density,"393.15 K, 100 kPa",1354.8 ± 12 kg/m3
same,mass density,"393.15 K, 1000 kPa",1355.8 ± 12 kg/m3
same,mass density,"393.15 K, 2000 kPa",1356.9 ± 12 kg/m3
same,mass density,"393.15 K, 3000 kPa",1357.9 ± 12 kg/m3
same,mass density,"393.15 K, 4000 kPa",1359 ± 12 kg/m3
same,mass density,"393.15 K, 5000 kPa",1360 ± 12 kg/m3
same,mass density,"393.15 K, 7500 kPa",1362.5 ± 12 kg/m3
same,mass density,"393.15 K, 10000 kPa",1365 ± 12 kg/m3
same,mass density,"393.15 K, 15000 kPa",1369.7 ± 12 kg/m3
same,mass density,"393.15 K, 20000 kPa",1374.3 ± 12 kg/m3
same,mass density,"393.15 K, 25000 kPa",1378.8 ± 12 kg/m3
same,mass density,"393.15 K, 30000 kPa",1383.2 ± 12 kg/m3
same,mass density,"393.15 K, 35000 kPa",1387.5 ± 12 kg/m3
